Holding throughout (format): cell-based
One assay has as its target T1, hS1P1 (Homo sapiens, UniProt P21453).
T1 construct: expressed in transfected cells
As to the kind of experiment: S1P receptor subtype selectivity, S1P-induced [Ca2+]i increase in CHO-K1 cells stably expressing S1P1 (Calcium3). How it is done: (§1) The selectivity to the S1P receptor subtype was examined in the following manner. […] Furthermore, a Calcium3 (Molecular Devices, Inc.) solution prepared in HBSS (+) buffer, which is a fluorescent Ca^2+ indicator, was added, and the cells were incubated for 60 minutes at 37° C. Then, 100 μL of a test compound solution prepared to a concentration of 2×10 μmol/L was added, and the cells were incubated for 20 minutes at 37° C. […] The indicator was prepared and used according to the instruction manual.
(§2) A solution of the test compound was prepared by dissolving each of the test compounds in DMSO to a concentration of 10 mmol/L, and then diluting the solution with an HBSS (+) buffer solution to the predetermined concentration. […] The measurement values were obtained by subtracting the maximum RFU value for the blind test from the maximum RFU values for control or each test compounds. A decrease in the measurement value for the test compound relative to the control was indicated as the suppression rate (%), from which the IC50 value was calculated.

In another assay the target is T2, hS1P2 (Homo sapiens, UniProt O95136).
T2 construct: expressed in transfected cells
The experiment in a line: S1P receptor subtype selectivity, S1P-induced [Ca2+]i increase in CHO-K1 cells stably expressing S1P2 (Calcium3). How it is done:
as §1, §2

Assay [1] concerns the target T3, hS1P3 (Homo sapiens, UniProt Q99500). The experiment in a line: S1P receptor subtype selectivity, S1P-induced [Ca2+]i increase in CHO-K1 cells stably expressing S1P3 (Calcium3). As to the method:
as §1, §2

Assay [2] concerns the target T3, hS1P3. As to the kind of experiment: Suppressive effect on S1P-induced increase in [Ca2+]i, CHO-K1 cells expressing S1P3 (Fura 2-AM), IC50. The settings on record: S1P solution 50 nmol/L, read-out: hS1P3 suppression IC50.
Where [3] appears, read: 10 μM, CHO-K1 stably expressing S1P1, S1P solution 100 nmol/L, Calcium3, read-out: Suppression rate at 10 μM (%) hS1P1.
Where [4] appears, read: 10 μM, CHO-K1 stably expressing S1P2, S1P solution 100 nmol/L, Calcium3, read-out: Suppression rate at 10 μM (%) hS1P2.
The mark [5] stands for this setting: 10 μM, CHO-K1 stably expressing S1P3, S1P solution 50 nmol/L, Calcium3, read-out: Suppression rate at 10 μM (%) hS1P3.
Where [6] appears, read: CHO-K1, read-out: Suppression rate at 10 μM (%) hS1P1.
Where [7] appears, read: CHO-K1, read-out: Suppression rate at 10 μM (%) hS1P2.
The mark [8] stands for this setting: CHO-K1, read-out: Suppression rate at 10 μM (%) hS1P3.

Read-outs that look alike come from different tables or passages of the source.

T1 sequence (P21453 whole entry): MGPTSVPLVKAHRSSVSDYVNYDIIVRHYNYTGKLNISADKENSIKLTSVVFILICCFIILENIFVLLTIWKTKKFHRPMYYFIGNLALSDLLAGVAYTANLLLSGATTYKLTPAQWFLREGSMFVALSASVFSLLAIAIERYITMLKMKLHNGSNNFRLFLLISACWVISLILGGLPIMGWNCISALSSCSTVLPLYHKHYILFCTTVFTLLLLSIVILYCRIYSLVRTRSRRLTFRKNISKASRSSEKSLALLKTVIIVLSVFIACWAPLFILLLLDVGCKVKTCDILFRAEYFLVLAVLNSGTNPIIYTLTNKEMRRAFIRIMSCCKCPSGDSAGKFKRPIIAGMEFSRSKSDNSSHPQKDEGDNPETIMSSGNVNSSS
T2 sequence (O95136 whole entry): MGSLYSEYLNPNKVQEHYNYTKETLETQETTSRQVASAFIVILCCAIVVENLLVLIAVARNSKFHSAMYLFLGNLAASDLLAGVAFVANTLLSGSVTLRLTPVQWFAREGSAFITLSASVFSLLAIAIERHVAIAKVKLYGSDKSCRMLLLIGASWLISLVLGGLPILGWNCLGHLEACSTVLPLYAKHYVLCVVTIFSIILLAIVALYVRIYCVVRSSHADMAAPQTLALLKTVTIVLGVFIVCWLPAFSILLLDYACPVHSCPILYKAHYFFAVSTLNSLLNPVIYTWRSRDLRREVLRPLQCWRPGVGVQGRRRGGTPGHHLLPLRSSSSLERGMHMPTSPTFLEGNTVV
T3 sequence (Q99500 whole entry): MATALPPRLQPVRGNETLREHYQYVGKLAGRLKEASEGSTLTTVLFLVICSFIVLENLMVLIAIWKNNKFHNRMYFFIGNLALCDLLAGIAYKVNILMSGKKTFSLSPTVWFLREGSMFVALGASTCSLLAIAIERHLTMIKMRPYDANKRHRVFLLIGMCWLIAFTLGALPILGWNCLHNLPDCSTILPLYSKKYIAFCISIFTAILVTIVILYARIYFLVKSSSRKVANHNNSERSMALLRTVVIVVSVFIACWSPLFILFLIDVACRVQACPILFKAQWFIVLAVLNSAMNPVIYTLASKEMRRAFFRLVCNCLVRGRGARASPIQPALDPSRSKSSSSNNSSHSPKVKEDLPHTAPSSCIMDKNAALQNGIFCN

What is called IC50 is the concentration at which inhibition is half-maximal. Turning to `CC(C)(C)C(=O)C(=NNc1ccc(Br)cc1)Nc1ccc(F)cc1` [Compound 74, 1-(4-bromophenylhydrazono)-1-(4-fluorophenylamino)-3,3-dimethyl-2-butanone], the values for the inhibition at 10 µM on hS1P1 (setting [3]), at hS1P2 (setting [4]) and on hS1P3 [1] (setting [5]) were 20.4%, 23.2% and 105%, respectively. For the same compound, the 50% inhibitory concentration (IC50) on hS1P3 [2] amounted to 2320 nM.
`CC(C)(C)C(=O)C(=NNc1ccc(Cl)cc1)Nc1ccc(Br)cc1` [Compound 134, 1-(4-bromophenylamino)-1-(4-chlorophenylhydrazono)-3,3-dimethyl-2-butanone]: the inhibition at 10 µM came to 36.4% at hS1P1 (setting [3]), 29.8% on hS1P2 (setting [4]) and 96.5% on hS1P3 [1] (setting [5]). Besides, the half-inhibitory concentration (IC50) at hS1P3 [2] stood at 870 nM.
The like results for `CC(C)(C)C(=O)C(=NNc1ccc(Br)cc1)Nc1ccc(Br)cc1` [Compound 76, 1-(4-bromophenylamino)-1-(4-bromophenylhydrazono)-3,3-dimethyl-2-butanone] were, in that order, 5.1%, 26.1%, 103% and 1660 nM.
On to `C#Cc1ccc(NC(=NNc2ccc(Cl)cc2)C(=O)C(C)(C)CCl)cc1` [Compound 122, 4-chloro-1-(4-chlorophenylhydrazono)-1-(4-ethynylphenylamino)-3,3-dimethyl-2-butanone], for which the inhibition at 10 µM on hS1P1 (setting [6]) came to 4.9%; at hS1P2 (setting [7]) it was 7.1%; at hS1P3 [1] (setting [8]) it was 89.9%. The IC50 on hS1P3 [2] came to 3860 nM.
On to `O=C(C(=NNc1ccc(Cl)cc1)Nc1cccc(F)c1)N1CCCCC1` [Compound 21, [1-(4-Chlorophenylhydrazono)-1-(3-fluorophenylamino)acetyl]piperidine], for which the inhibition at 10 µM at hS1P1 (setting [3]) is 17.5%; at hS1P2 (setting [4]), 13.7%; on hS1P3 [1] (setting [5]) it was 91.1%. The IC50 on hS1P3 [2] came out at 26800 nM.
With `CC(C)(C)C(=O)C(=NNc1ccc(Br)cc1)Nc1cccc(F)c1` [Compound 73, 1-(4-bromophenylhydrazono)-1-(3-fluorophenylamino)-3,3-dimethyl-2-butanone], the inhibition at 10 µM on hS1P1 (setting [3]) amounted to 5.1%; at hS1P2 (setting [4]), 22.3%. Also, at hS1P3 [2], the IC50 came to 1900 nM.
The like results for `CC(C)(C)C(=O)C(=NNc1ccc(Cl)c(Cl)c1)Nc1cccc(F)c1` [Compound 104, 1-(3,4-dichlorophenylhydrazono)-1-(3-fluorophenylamino)-3,3-dimethyl-2-butanone] were, in that order, 28.3%, 18.9% and 430 nM.
Regarding `CC(C)(C)C(=O)C(=NNc1cccc(Cl)c1)Nc1ccc(Cl)cc1` [Compound 42, 1-(4-chlorophenylamino)-1-(3-chlorophenylhydrazono)-3,3-dimethyl-2-butanone], the figures for the inhibition at 10 µM at hS1P1 (setting [6]) and on hS1P2 (setting [7]) were 7.9% and 32.9%, respectively. Besides, the IC50 at hS1P3 [2] came out at 2890 nM.
The like results for `Cc1ccc(NN=C(Nc2ccc(C)cc2)C(=O)C(C)(C)C)cc1` [Compound 63, 1-(4-methylphenylamino)-1-(4-methylphenylhydrazono)-3,3-dimethyl-2-butanone] were, in that order, -9.1%, -1.4% and 5710 nM.
In the case of `C#Cc1ccc(NC(=NNc2ccc(Br)cc2)C(=O)C(C)(C)C)cc1` [Compound 78, 1-(4-bromophenylhydrazono)-1-(4-ethynylphenylamino)-3,3-dimethyl-2-butanone], the inhibition at 10 µM came out at 25.1% at hS1P1 (setting [6]), 20.8% at hS1P2 (setting [7]) and 105% on hS1P3 [1] (setting [8]). The IC50 on hS1P3 [2] worked out at 970 nM.
Take `CC(C)(C)C(=O)C(=NNc1ccccc1)Nc1ccc(Cl)cc1` [Compound 50, 1-(4-chlorophenylamino)-1-(phenylhydrazono)-3,3-dimethyl-2-butanone]: the inhibition at 10 µM turned out to be 25.1% at hS1P1 (setting [6]) and 13.6% at hS1P2 (setting [7]). The IC50 at hS1P3 [2] amounted to 3740 nM.
For `Cc1ccc(NN=C(Nc2cccc(F)c2)C(=O)C(C)(C)C)cc1` [Compound 61, 1-(3-fluorophenylamino)-1-(4-methylphenylhydrazono)-3,3-dimethyl-2-butanone], the inhibition at 10 µM was -2.9% at hS1P1 (setting [3]) and 8.1% at hS1P2 (setting [4]). In addition, the IC50 on hS1P3 [2] amounted to 3220 nM.
For `CCOC(=O)C(=NNc1ccc(Cl)cc1)Nc1cccc(C#N)c1` [Compound 20, ethyl 1-(4-chlorophenylhydrazono)-1-(3-cyanophenylamino)acetate], the inhibition at 10 µM at hS1P1 (setting [6]) was -3.5%; at hS1P2 (setting [7]) it was -4.6%. Moreover, the IC50 at hS1P3 [2] came to 2180 nM.
For `CC(C)(C)CC(=O)C(=NNc1ccc(Cl)cc1)Nc1cccc(Cl)c1` [Compound 140, 1-(3-chlorophenylamino)-1-(4-chlorophenylhydrazono)-4,4-dimethyl-2-pentanone], in that order: 18.3%, 26.2% and 1990 nM.
`C#Cc1ccc(NN=C(Nc2ccc(C#C)cc2)C(=O)C(C)(C)C)cc1` [Compound 138, 1-(4-ethynylphenylamino)-1-(4-ethynylphenylhydrazono)-3,3-dimethyl-2-butanone]: the inhibition at 10 µM on hS1P1 (setting [6]) came to 14.1%; on hS1P2 (setting [7]), 8%; at hS1P3 [1] (setting [8]), 79.9%. Also, the IC50 on hS1P3 [2] turned out to be 1620 nM.
Take `CC(C)(C)C(=O)C(=NNc1ccccc1)Nc1ccc(Cl)c(Cl)c1` [Compound 52, 1-(3,4-dichlorophenylamino)-1-(phenylhydrazono)-3,3-dimethyl-2-butanone]: the figures for the inhibition at 10 µM at hS1P1 (setting [3]) and at hS1P2 (setting [4]) were 29.5% and 26.2%, respectively. Further, at hS1P3 [2], the IC50 came out at 1020 nM.
The like results for `CC(C)(C)C(=O)C(=NNc1ccc(Br)cc1)Nc1ccc(Cl)c(Cl)c1` [Compound 80, 1-(4-bromophenylhydrazono)-1-(3,4-dichlorophenylamino)-3,3-dimethyl-2-butanone] were, in that order, 20.6%, 26.3% and 380 nM.
Turning to `CC(C)(C)C(=O)C(=NNc1ccc(F)cc1)Nc1ccc(F)cc1` [Compound 54, 1-(4-fluorophenylamino)-1-(4-fluorophenylhydrazono)-3,3-dimethyl-2-butanone], the results for the inhibition at 10 µM on hS1P1 (setting [3]), on hS1P2 (setting [4]) and at hS1P3 [1] (setting [5]) were 22%, 16% and 101%, respectively. On hS1P3 [2], the IC50 was 4380 nM.
Consider `CCCCC(=O)C(=NNc1ccc(Cl)cc1)Nc1ccc(Cl)cc1` [Compound 115, 1-(4-chlorophenylamino)-1-(4-chlorophenylhydrazono)-2-hexanone], for which the inhibition at 10 µM amounted to 24.3% on hS1P1 (setting [6]) and 27% at hS1P2 (setting [7]). On hS1P3 [2], the IC50 came to 2470 nM.
For the compound `COc1ccc(NC(=NNc2ccc(F)cc2)C(=O)C(C)(C)C)cc1` [Compound 57, 1-(4-fluorophenylhydrazono)-1-(4-methoxyphenylamino)-3,3-dimethyl-2-butanone], the inhibition at 10 µM turned out to be 11.5% at hS1P1 (setting [3]) and 15% at hS1P2 (setting [4]). The IC50 on hS1P3 [2] was found to be 4950 nM.
In the case of `O=C(C(=NNc1ccc(Cl)cc1)Nc1cccc(F)c1F)c1ccccc1` [Compound 3, 2-(4-chlorophenylhydrazono)-2-(2,3-difluorophenylamino)acetophenone], the inhibition at 10 µM on hS1P1 (setting [3]) is 18.6%; at hS1P2 (setting [4]), -0.4%; at hS1P3 [1] (setting [5]), 68.5%. For the same compound, the IC50 on hS1P3 [2] came to 14700 nM.
As for `CC(C)(C)NC(=O)C(=NNc1ccc(Cl)cc1)Nc1cccc(F)c1` [Compound 28, N-tert-butyl-[1-(4-chlorophenylhydrazono)-1-(3-fluorophenylamino)]acetamide], the inhibition at 10 µM at hS1P1 (setting [6]) is 14.6%; at hS1P2 (setting [7]) it was 14.2%. The concentration for half-maximal inhibition (IC50) on hS1P3 [2] amounted to 7970 nM.
As to `CC(C)(C)CC(=O)C(=NNc1ccc(Cl)cc1)Nc1cccc(F)c1` [Compound 113, 1-(4-chlorophenylhydrazono)-1-(3-fluorophenylamino)-4,4-dimethyl-2-pentanone], the inhibition at 10 µM on hS1P1 (setting [3]) came out at 5.9%; at hS1P2 (setting [4]), 20.7%. Also, the 50% inhibitory concentration (IC50) on hS1P3 [2] was 1780 nM.
On to `Cc1ccc(NN=C(Nc2ccc(Cl)cc2)C(=O)C(C)(C)C)cc1` [Compound 62, 1-(4-chlorophenylamino)-1-(4-methylphenylhydrazono)-3,3-dimethyl-2-butanone], for which the results for the inhibition at 10 µM on hS1P1 (setting [6]) and on hS1P2 (setting [7]) were -9.7% and 7.4%, respectively. Further, at hS1P3 [2], the half-inhibitory concentration (IC50) turned out to be 1720 nM.
With `CC(C)(C)C(=O)C(=NNc1cccc(Cl)c1)Nc1cccc(F)c1` [Compound 41, 1-(3-chlorophenylhydrazono)-1-(3-fluorophenylamino)-3,3-dimethyl-2-butanone], the results for the inhibition at 10 µM on hS1P1 (setting [3]) and on hS1P2 (setting [4]) were 18.4% and 27.1%, respectively. At hS1P3 [2], the IC50 is 3540 nM.
